# From ChEMBL document CHEMBL4814028, “Design, synthesis, and antibacterial evaluation of PFK-158 derivatives as potent agents against drug-resistant bacteria” (Bioorg Med Chem Lett, 2021)
# Columns and labels:
# Escherichia coli [1] = experiment: Synergistic antibacterial activity against carbapenem-resistant Escherichia coli 08-85 mcr-1 positive isolate in presence of colistin by checkerboard assay; format: functional
# Staphylococcus aureus [2] = experiment: Antibacterial activity against methicillin-resistant Staphylococcus aureus ATCC 33591 by agar method; format: functional
# [3] = test system: Staphylococcus epidermidis; experiment: Antibacterial activity against methicillin-sensitive Staphylococcus epidermidis ATCC 12228 by agar method; format: functional
# A549 = experiment: Cytotoxicity against human A549 cells; format: cell-based
# Escherichia coli [4] = experiment: Antibacterial activity against carbapenem-resistant Escherichia coli 08-85 mcr-1 positive isolate by checkerboard assay; format: functional
# Escherichia coli [5] = experiment: Antibacterial activity against ESBLs negative Escherichia coli ATCC 25922 by agar method; format: functional
# [6] = test system: Staphylococcus epidermidis; experiment: Potency index, ratio of Levofloxacin MIC to test compound MIC for antibacterial activity against methicillin-resistant Staphylococcus epidermidis […] 16-5; format: functional
# Enterobacter cloacae [7] = experiment: Synergistic antibacterial activity against carbapenem-resistant Enterobacter cloacae D01 mcr-1 negative isolate in presence of colistin by checkerboard assay; format: functional
# Acinetobacter baumannii = experiment: Antibacterial activity against carbapenem-resistant Acinetobacter baumannii 16-33 by agar method; format: functional
# Enterobacter cloacae [8] = experiment: Synergistic antibacterial activity against carbapenem-resistant Enterobacter cloacae D01 mcr-1 negative isolate assessed as fractional inhibitory concentration index in presence of colistin by checkerboard assay; format: functional
# Escherichia coli [9] = experiment: Antibacterial activity against NDM-1 positive Escherichia coli ATCC 2469 by agar method; format: functional
# Escherichia coli [10] = experiment: Synergistic antibacterial activity against carbapenem-resistant Escherichia coli 08-85 mcr-1 positive isolate assessed as fractional inhibitory concentration index in presence of colistin by checkerboard assay; format: functional
# Enterobacter cloacae [11] = experiment: Antibacterial activity against carbapenem-resistant Enterobacter cloacae D01 mcr-1 negative isolate by checkerboard assay; format: functional
# Enterococcus faecalis [12] = experiment: Antibacterial activity against Vancomycin-sensitive Enterococcus faecalis ATCC 29212 by agar method; format: functional
# [13] = test system: Staphylococcus epidermidis; experiment: Antibacterial activity against methicillin-resistant Staphylococcus epidermidis 16-5 by agar method; format: functional
# Escherichia coli [14] = experiment: Antibacterial activity against ESBLs positive Escherichia coli ATCC 35218 by agar method; format: functional
# Enterococcus faecalis [15] = experiment: Antibacterial activity against vancomycin-resistant Enterococcus faecalis ATCC 51299 by agar method; format: functional
# Staphylococcus aureus [16] = experiment: Antibacterial activity against methicillin-sensitive Staphylococcus aureus ATCC 29213 by agar method; format: functional
SMILES,MIC (Escherichia coli [1]) [µg/mL],MIC (Staphylococcus aureus [2]) [µg/mL],MIC [3] [µg/mL],IC50 (A549) [µM],MIC (Escherichia coli [4]) [µg/mL],MIC (Escherichia coli [5]) [µg/mL],Ratio [6],MIC (Enterobacter cloacae [7]) [µg/mL],MIC (Acinetobacter baumannii) [µg/mL],fractional inhibitory concentration index (FICI) (Enterobacter cloacae [8]),MIC (Escherichia coli [9]) [µg/mL],fractional inhibitory concentration index (FICI) (Escherichia coli [10]),MIC (Enterobacter cloacae [11]) [µg/mL],MIC (Enterococcus faecalis [12]) [µg/mL],MIC [13] [µg/mL],MIC (Escherichia coli [14]) [µg/mL],MIC (Enterococcus faecalis [15]) [µg/mL],MIC (Staphylococcus aureus [16]) [µg/mL]
O=C(/C=C/c1ccc2ccccc2n1)c1ccccn1,32,1,1,18.5,1020,> 32,2,4,> 32,0.012,> 32,0.281,1020,4,1,> 32,4,2
O=C(/C=C/c1ccc2ccccc2n1)c1ccccc1,,2,2,,,> 128,2,,> 128,,> 128,,,128,4,> 128,128,2
O=C(/C=C/c1ccc2ccccc2n1)c1cccnc1,64,2,2,21.1,1020,> 32,2,64,> 32,0.07,> 32,0.313,1020,2,4,> 32,8,2
O=C(/C=C/c1ccc2ccc(C(F)(F)F)cc2n1)c1ccccn1,,2,4,10.2,,> 128,,,128,,> 128,,,> 128,4,> 128,128,1
O=C(/C=C/c1ccc2ccc(C(F)(F)F)cc2n1)c1cccnc1,,1,1,9.8,,> 32,,,> 32,,> 32,,,4,2,> 32,4,1
O=C(/C=C/c1ccc2c(C(F)(F)F)cccc2n1)c1ccncc1,,1,2,45.4,,> 128,,,128,,> 128,,,> 128,4,> 128,> 128,1
O=C(/C=C/c1ccccn1)c1ccc2ccc(C(F)(F)F)cc2n1,,2,2,11.2,,> 32,,,> 32,,> 32,,,32,4,> 32,> 32,4
O=C(/C=C/c1ccccn1)c1ccc2ccccc2c1,128,1,1,,1020,> 128,,16,> 128,0.023,> 128,0.375,1020,8,2,> 128,8,1
O=C(/C=C/c1ccc2c(C(F)(F)F)cccc2n1)c1ccccn1,,1,2,43.1,,> 128,,,128,,> 128,,,> 128,2,> 128,> 128,1
C[n+]1ccc(C(=O)/C=C/c2ccc3ccccc3c2)cc1.[I-],,64,128,,,> 128,,,> 128,,> 128,,,> 128,128,> 128,> 128,128
C[n+]1cccc(/C=C/C(=O)c2ccc3ccccc3c2)c1.[I-],,128,64,,,> 128,,,> 128,,> 128,,,> 128,> 128,> 128,> 128,128
O=C(/C=C/c1ccc2c(C(F)(F)F)cccc2n1)c1cccnc1,,2,2,> 50,,> 128,2,,128,,> 128,,,32,2,> 128,32,2
O=C(/C=C/c1ccc2ccc(C(F)(F)F)cc2n1)c1ccncc1 [PFK-158],2,2,1,15,1020,> 32,2,0.5,> 32,0.008,> 32,0.252,1020,4,2,> 32,4,2
